≈ marks a conversion by molar mass, not a printed value. Calls of active or inactive are those of the source. The calls are words filed in the database; no cut-off is given here.
Key:
Staphylococcus aureus [1] = assay: Antibacterial activity against ciprofloxacin-resistant methicillin-resistant Staphylococcus aureus ATCC 33591 incubated for 18 to 24 hrs; type: functional; conditions: time 18-24 hrs
Staphylococcus aureus [2] = assay: Antibacterial activity against polymyxin B-resistant Staphylococcus aureus ATCC 25923 incubated for 18 to 24 hrs; type: functional; conditions: time 18-24 hrs
Staphylococcus aureus [3] = assay: (§1) Antibacterial activity against methicillin-resistant Staphylococcus aureus ATCC 33591 infected in Balb/c mouse model of pneumonia infection assessed as reduction in inflammatory cell infiltration in lung at 10 mg/kg, ip administered thrice at 4, 8 and 12 hrs post-infection measured after 24 hrs post-infection by H and E staining based analysis; type: functional, organism-based; conditions: time 20.0 hrs
Staphylococcus aureus [4] = assay: Inhibition of imipenem-induced drug resistance in methicillin-resistant Staphylococcus aureus ATCC 33591 at sub-MIC measured upto 15 passages; type: functional, organism-based
[5] = Stability in mouse serum assessed as half life measured upto 96 hrs by RP-HPLC analysis; type: ADME, cell-free
Staphylococcus aureus [6] = assay: (§2) Antibacterial activity against methicillin-resistant Staphylococcus aureus ATCC 33591 infected in Balb/c mouse model of skin wound infection assessed as reduction in bacterial load in skin at 10 mg/kg, ip administered thrice at 1, 24 and 48 hrs post-infection measured after 72 hrs post-infection; type: functional, organism-based; conditions: time 71.0 hrs
Staphylococcus aureus [7] = assay: Synergistic antibacterial activity against methicillin-resistant Staphylococcus aureus ATCC 33591 assessed as fractional inhibitory concentration index upto 2 times MIC incubated for 18 to 24 hrs in presence of gentamicin by checkerboard assay; type: functional; conditions: time 18-24 hrs
[8] = Toxicity in Balb/c mouse assessed as cell swelling in liver at 80 mg/kg, ip measured after 7 days by H and E staining based analysis; type: organism-based; conditions: in vivo, 168 h, time 7 day
Staphylococcus aureus [9] = assay: Induction of drug resistance in Staphylococcus aureus ATCC 25923 at sub-MIC measured after 15 passages; type: functional, organism-based
Staphylococcus aureus [10] = assay: as §1, with “skin wound” for “pneumonia”, “skin” for “lung”, “1, 24” for “4, 8”, “48” for “12”, “14 days” for “24 hrs post-infection”; type: functional, organism-based; conditions: time 14.0 day
Staphylococcus aureus [11] = assay: Anti-biofilm activity against methicillin-resistant Staphylococcus aureus ATCC 33591 at 8 uM incubated for 24 hrs by MTT assay; type: functional, organism-based
Staphylococcus aureus [12] = assay: as §2, with “crusted back wound” for “reduction in bacterial load in skin”, “9 days in presence of polymyxin B relative to control” for “72 hrs post-infection”; type: functional; conditions: time 9 day
Staphylococcus aureus [13] = assay: Antibacterial activity against drug-resistant methicillin-resistant Staphylococcus aureus ATCC 33591 incubated for 18 to 24 hrs; type: functional; conditions: time 18-24 hrs
[14] = Toxicity in Balb/c mouse assessed as change in serum ALT level at 20 to 80 mg/kg, ip measured after 7 days; type: organism-based; conditions: in vivo, 168 h, dose 20-80 mg/kg, time 7 day
[15] = system: Staphylococcus epidermidis; assay: Antibacterial activity against Staphylococcus epidermidis ATCC 12228 incubated for 18 to 24 hrs by broth microdilution method; type: functional; conditions: time 18-24 hrs
Staphylococcus aureus [16] = assay: Antibacterial activity against drug-resistant Staphylococcus aureus ATCC 25923 incubated for 18 to 24 hrs; type: functional; conditions: time 18-24 hrs
[17] = Toxicity in Balb/c mouse assessed as inflammatory cell infiltration in kidney at 80 mg/kg, ip measured after 7 days by H and E staining based analysis; type: organism-based; conditions: in vivo, 168 h, time 7 day
Staphylococcus aureus [18] = assay: Antibacterial activity against methicillin-resistant Staphylococcus aureus ATCC 33591 assessed as bacterial growth inhibition at 0.5 to 1 times MIC incubated for 18 to 24 hrs by time-kill assay; type: functional, organism-based; conditions: time 18-24 hrs
[19] = Toxicity in Balb/c mouse assessed as survival rate at 80 mg/kg, ip measured after 7 days; type: organism-based; conditions: in vivo, time 7 day
Staphylococcus aureus [20] = assay: Antibacterial activity against methicillin-resistant Staphylococcus aureus ATCC 33591 incubated for 18 to 24 hrs in presence of 1 mg/ml of pepsin by broth microdilution method; type: functional; conditions: time 18-24 hrs
Staphylococcus aureus [21] = assay: Antibacterial activity against methicillin-resistant Staphylococcus aureus ATCC 33591 infected in Balb/c mouse model of acute systemic infection assessed as reduction in hemorrhage in lung at 10 mg/kg, ip measured after 5 days by H and E staining based analysis; type: functional, organism-based; conditions: time 5.0 day
Staphylococcus aureus [22] = assay: Antibacterial activity against methicillin-resistant Staphylococcus aureus ATCC 33591 infected in Balb/c mouse model of acute systemic infection assessed as reduction in bleeding in heart at 10 mg/kg, ip measured after 5 days by H and E staining based analysis; type: functional, organism-based; conditions: time 5.0 day
Staphylococcus aureus [23] = assay: Bactericidal activity against methicillin-resistant Staphylococcus aureus ATCC 33591 at 2 times MIC incubated for 6 hrs by time-kill assay relative to control; type: functional
Staphylococcus aureus [24] = assay: as §1, with “IL-1beta activity” for “inflammatory cell infiltration”, “IHC” for “H and E staining based”; type: functional, organism-based; conditions: time 20.0 hrs
Staphylococcus aureus [25] = assay: Induction of cell membrane damage in methicillin-resistant Staphylococcus aureus ATCC 33591 assessed as protein leakage at 2 to 8 times MIC measured upto 360 mins by absorbance based assay; type: functional, organism-based
Staphylococcus aureus [26] = assay: as §1, with “alveolar contraction” for “inflammatory cell infiltration”; type: functional, organism-based
Staphylococcus aureus [27] = assay: Antibacterial activity against methicillin-resistant Staphylococcus aureus ATCC 33591 incubated for 18 to 24 hrs in presence of 0.5 mg/ml of trypsin by broth microdilution method; type: functional; conditions: time 18-24 hrs
Staphylococcus aureus [28] = assay: as §1, with “reduction in alveolar contraction in lung” for “reduction in inflammatory cell infiltration in lung”, “hrs post-infection in presence of polymyxin B by H” for “hrs post-infection by H”; type: functional, organism-based; conditions: time 20.0 hrs
Staphylococcus aureus [29] = assay: Inhibition of gentamicin-induced drug resistance in Staphylococcus aureus ATCC 25923 at sub-MIC measured upto 15 passages; type: functional, organism-based
Staphylococcus aureus [30] = assay: Induction of morphological changes in methicillin-resistant Staphylococcus aureus ATCC 33591 assessed as bacterial membrane folds at 2 times MIC incubated for 2 hrs by SEM analysis; type: functional, organism-based
Staphylococcus aureus [31] = assay: as §1, with “TNF-alpha activity” for “inflammatory cell infiltration”, “IHC” for “H and E staining based”; type: functional, organism-based; conditions: time 20.0 hrs
Staphylococcus aureus [32] = assay: Synergistic bactericidal activity against persistent methicillin-resistant Staphylococcus aureus ATCC 33591 incubated for 18 to 24 hrs in presence of vancomycin by time-kill assay; type: functional, organism-based; conditions: time 18-24 hrs
Staphylococcus aureus [33] = assay: Antibacterial activity against gentamicin-resistant methicillin-resistant Staphylococcus aureus ATCC 33591 incubated for 18 to 24 hrs; type: functional; conditions: time 18-24 hrs
Staphylococcus aureus [34] = assay: Antibacterial activity against gentamicin-resistant Staphylococcus aureus ATCC 25923 incubated for 18 to 24 hrs; type: functional; conditions: time 18-24 hrs
Staphylococcus aureus [35] = assay: as §1, with “bacterial load” for “inflammatory cell infiltration”, “in presence of polymyxin B” for “by H and E staining based analysis”; type: functional, organism-based; conditions: time 20.0 hrs
Staphylococcus aureus [36] = assay: Destruction of cell membrane in methicillin-resistant Staphylococcus aureus ATCC 33591 assessed as increase in red fluorescence intensity incubated for 2 hrs by PI staining based analysis; type: functional, organism-based
Staphylococcus aureus [37] = assay: Antibacterial activity against polymyxin B-resistant methicillin-resistant Staphylococcus aureus ATCC 33591 incubated for 18 to 24 hrs; type: functional; conditions: time 18-24 hrs
Staphylococcus aureus [38] = assay: Antibacterial activity against methicillin-resistant Staphylococcus aureus ATCC 33591 incubated for 18 to 24 hrs in presence of 0.5 mg/ml of chymotrypsin by broth microdilution method; type: functional; conditions: time 18-24 hrs

CCCCCCCCCCCC(=O)N[C@H](CCCNC(=N)N)C(=O)N[C@H](CCCNC(=N)N)C(=O)N[C@H](Cc1c[nH]c2ccccc12)C(=O)O
MIC (Staphylococcus aureus [1]): 32 µM (≈ 22.4 µg/mL)
MIC (Staphylococcus aureus [2]): 4 µM (≈ 2.8 µg/mL)
Activity (Staphylococcus aureus [3]): Active
inhibition (Staphylococcus aureus [4]): Active
half-life [5]: > 48 h
Activity (Staphylococcus aureus [6]): Active
fractional inhibitory concentration index (FICI) (Staphylococcus aureus [7]): 0.125
Activity [8]: Toxic
Activity (Staphylococcus aureus [9]): inactive
Activity (Staphylococcus aureus [10]): Active
Activity (Staphylococcus aureus [11]): Active; Compound Activity Was Slightly Weaker Than Vancomycin But Significantly Better Than Polymyxin B, Imipenem, Ciprofloxacin And Gentamicin
Activity (Staphylococcus aureus [12]): 100%
MIC (Staphylococcus aureus [13]): 8 µM (≈ 5.59 µg/mL)
Activity [14]: Non-toxic
MIC [15]: 2 µM (≈ 1.4 µg/mL)
MIC (Staphylococcus aureus [16]): 8 µM (≈ 5.59 µg/mL)
Activity [17]: Toxic
inhibition (Staphylococcus aureus [18]): Active
survival at 168 h [19]: 75%
MIC (Staphylococcus aureus [20]): 8 µM
Activity (Staphylococcus aureus [21]): Active
Activity (Staphylococcus aureus [22]): Active
Activity (Staphylococcus aureus [23]): 100%
Activity (Staphylococcus aureus [24]): Active
Activity (Staphylococcus aureus [25]): Active
Activity (Staphylococcus aureus [26]): Active
MIC (Staphylococcus aureus [27]): 4 µM
Activity (Staphylococcus aureus [28]): Not active; Compound Exerted Slightly More Severe Than Compound Treatment Alone
inhibition (Staphylococcus aureus [29]): Active
Activity (Staphylococcus aureus [30]): Active
Activity (Staphylococcus aureus [31]): Active
Activity (Staphylococcus aureus [32]): Dose-dependent-effect
MIC (Staphylococcus aureus [33]): 8 µM (≈ 5.59 µg/mL)
MIC (Staphylococcus aureus [34]): 8 µM (≈ 5.59 µg/mL)
Activity (Staphylococcus aureus [35]): Active
Activity (Staphylococcus aureus [36]): Dose-dependent-effect
MIC (Staphylococcus aureus [37]): 16 µM (≈ 11.2 µg/mL)
MIC (Staphylococcus aureus [38]): 4 µM

Source: ChEMBL document CHEMBL6114969, “Ultra-short lipopeptides containing d-amino acid exhibiting excellent stability and antibacterial activity against gram-positive bacteria” (Eur J Med Chem, 2025)
